This is an account of results in ChEMBL document CHEMBL1147573, “Chemiluminescence quenching of pteroic acid-N-sulfonyl-acridinium-9-carboxamide conjugates by folate binding protein” (Bioorg Med Chem Lett, 2004).

A short description of the assay: Binding affinity towards folate binding protein.

Consider `Cc1ccc(S(=O)(=O)N(CCCS(=O)(=O)[O-])C(=O)c2c3ccccc3[n+](CCCCCCCCCC(=O)NCCCCCCNC(=O)c3ccc(N(Cc4cnc5nc(N)nc(O)c5n4)C(=O)C(F)(F)F)cc3)c3ccccc23)cc1`, for which the IC50 turned out to be 8.14 nM.
Turning to `Cc1ccc(S(=O)(=O)N(CCCC(=O)NCCCCCCNC(=O)c2ccc(N(Cc3cnc4nc(N)nc(O)c4n3)C(=O)C(F)(F)F)cc2)C(=O)c2c3ccccc3[n+](CCCS(=O)(=O)[O-])c3ccccc23)cc1`, the IC50 is 8.43 nM.

By IC50 is commonly meant the concentration that gives 50% inhibition. Read a high IC50 as weaker potency in that assay.
